In one data set the test system is mast cells. The data set can be described thus: Phosphorylation and degranulation of antigen-stimulated mast cells grown with chronic SCF (FIG. 21). The conditions noted are these: 1 μM, antigen 15 minutes. In kind it is cell-based. Here is the method: Histamine release, CD63 expression, CD203c expression, pBTK (Y223) levels, pP38 (T180/Y182) levels, pPLCg1 (S1248) levels, pERK (T202/Y204) levels, and pS6 (S235/236) levels are shown. Mast cells were grown with continuous (chronic) exposure to SCF and then stimulated with antigen (Ag) for 15 minutes, leading to phosphorylation of multiple kinases, including pBTK, […], pP38, pERK, and pS6 ribosome. This stimulation increases degranulation markers, including CD63, CD203c, and histamine release.

The subject of a further data set is ISM patients. The conditions noted are these: cited from earlier work.
The test system of a further data set is humans. The note with it: cited from earlier work.
In another data set the test system is basophils. The experiment in a line: Comparison of BTK inhibitors by BAT (CD63, CD203c). In kind it is cell-based, human. The note with it: concentration of 1 μM, 2 hours, blood from a healthy donor. As for the experimental part: The BAT assay using the Flow Cast Basophil Activation Kit (Buhlmann Diagnostics; Catalog #B-CCR-STCON) was then conducted following manufacturer instructions by (1) stimulating the blood with anti-FcεR stimulation control in stimulation buffer with IL-3 and staining cells for CCR3 and CD63 for 15 minutes at 37° C., (2) lysing red blood cells and fixing cells with Lysing Reagent at room temperature for 10 minutes, (3) washing cells with Wash Buffer, and (4) acquiring data on a flow cytometer. Activated basophils were defined as CCR3+, low side scatter and CD63+. Percent of activated basophils was calculated as number of activated basophils over the total number of basophils. A four-parameter logistic regression was applied to determine the EC50 and EC90.
Blood samples were gently rocked at room temperature for 2 hours. […] Activated basophils were also defined as CCR3+, low side scatter and CD203c+.

In data set [1] the test system is subjects with AdvSM and ISM. The conditions noted are these: cited from earlier work.

As to `Cn1cc(-c2cc3c(N4CCN(c5ncc([C@@](C)(N)c6ccc(F)cc6)cn5)CC4)ncnn3c2)cn1` [avapritinib], in the data set with mast cells, the “activation (phosphorylation and degranulation) of mast cells” value is “only partially inhibits activation”. Also, in the data set on ISM patients (25 mg QD, week 24, ISM patients), the “reduction of total symptom score compared to the placebo” value is on record as 5.7 points. The “ISM patients with dose interruptions due to adverse reactions” value with ISM patients (25 mg QD) was 5%. The “treated subjects who failed to achieve a mean symptom score reduction of 30%” value in the data set on ISM patients (ISM patients, first 6 months of treatment) is “approximately half”. The “subjects who achieved a 50% symptom score reduction” value in the data set with ISM patients (ISM patients, within the first 6 months of treatment) is recorded as “about a third”.
For `C=CC(=O)N1CCC[C@@H](n2nc(-c3ccc(Oc4ccccc4)cc3)c3c(N)ncnc32)C1` [ibrutinib, Ibrutinib (1-[(3R)-3-[4-amino-3-(4-phenoxyphenyl)pyrazolo[3,4-d]pyrimidin-1-yl]piperidin-1-yl]prop-2-en-1-one)], the “adverse events associated with administration” value with humans was “heightened risk of atrial fibrillation, hypertension, major bleeding events, and cytopenias”.
Consider `CC#CC(=O)N1CCC[C@H]1c1nc(-c2ccc(C(=O)Nc3ccccn3)cc2)c2c(N)nccn12` [acalabrutinib, Acalabrutinib ((S)-4-(8-amino-3-(1-(but-2-ynoyl)pyrrolidin-2-yl)imidazo[1,5-a]pyrazin-1-yl)-N-(pyridin-2-yl)benzamide), reference compound], for which the “basophil activation (CD63+, CD203c+)” value in the data set on basophils was “no effect on basophil activation”.
Consider `Cc1nc(Nc2ncc(C(=O)Nc3c(C)cccc3Cl)s2)cc(N2CCN(CCO)CC2)n1` [dasatinib], for which the “subjects who discontinued treatment due to toxicity” value in data set [1] (15 subjects with AdvSM and 18 subjects with ISM, overall) is given as 34%. For the same compound, the “pleural effusion, grade 3 adverse event, patients overall” value in data set [1] (overall study population) is 10%.

Source of the values: patent US20250360130A1, “METHODS OF TREATING INDOLENT SYSTEMIC MASTOCYTOSIS” (Telios Pharma Inc., priority 2024, published 2025).
